Source: the NIST ThermoML archive (doi:10.1016/j.jct.2011.10.012)
Where “and” joins values, the source holds several entries; their conditions need not be identical. Identical values can stand only once.

Settings: for viscosity: 101.33 kPa, Cone and plate viscometry; for viscosity / mass density: Liquid; for mass density: Vibrating tube method; for surface tension liquid-gas: Wilhelmy plate

CCCCCCCCCCCCCC[P+](CCCCCC)(CCCCCC)CCCCCC.FC(F)(F)C(F)(F)[P-](F)(F)(F)(C(F)(F)C(F)(F)F)C(F)(F)C(F)(F)F
Settings	surface tension liquid-gas [mN/m]	viscosity
283.09 K	–	975.8 mPa·s and 976.8 mPa·s
283.1 K	–	991.3 mPa·s and 992.8 mPa·s and 989.8 mPa·s
288.13 K	–	697.9 mPa·s [middle of 4 runs]
293.07 K	–	504.6 mPa·s [middle of 5 runs]
298.15 K	–	335.9 mPa·s and 336.5 mPa·s
298.51 K	28.99	–
303.15 K	–	256.1 mPa·s [middle of 5 runs]
305.16 K	28.68	–
308.15 K	–	196 mPa·s [middle of 6 runs]
309.15 K	28.44	–
313.15 K	–	151.2 mPa·s [middle of 8 runs]
313.65 K	28.14	–
318.15 K	–	118.8 mPa·s [middle of 8 runs]
319.7 K	27.8	–
323.15 K	–	96.4 mPa·s [middle of 15 runs]
325.35 K	27.58	–
328.15 K	–	79.6 mPa·s [middle of 11 runs]
330.62 K	27.28	–
333.15 K	–	65 mPa·s [middle of 13 runs]
337.9 K	26.85	–
338.15 K	–	54 mPa·s [middle of 13 runs]
343.15 K	–	44.3 mPa·s [middle of 9 runs]
343.29 K	26.57	–
348.15 K	–	37.5 mPa·s [middle of 9 runs]
353.15 K	–	32.1 mPa·s [middle of 8 runs]
358.15 K	–	27.9 mPa·s and 28 mPa·s and 28.1 mPa·s
358.17 K	–	28.2 mPa·s and 28.1 mPa·s and 28 mPa·s
363.17 K	–	24.5 mPa·s and 24.4 mPa·s
363.18 K	–	24.6 mPa·s and 24.5 mPa·s
363.2 K	–	24.6 mPa·s and 24.5 mPa·s

mass density [kg/m3]
Settings	100 kPa	2000 kPa	3000 kPa	5000 kPa	10000 kPa	15000 kPa	20000 kPa	25000 kPa
293.15 K	1185.6	1187	1187.7	1189.2	1192.6	1196.1	1199.4	1202.6
298.15 K	1181.8	1183.2	1183.9	1185.4	1189	1192.5	1195.8	1199.1
303.15 K	1177.9	1179.4	1180.1	1181.6	1185.3	1188.9	1192.3	1195.6
308.15 K	1174	1175.5	1176.3	1177.8	1181.5	1185.2	1188.7	1192.1
313.15 K	1170.1	1171.6	1172.4	1174	1177.8	1181.5	1185.1	1188.6
318.15 K	1166.2	1167.7	1168.5	1170.2	1174.1	1177.8	1181.5	1185
323.15 K	1162.3	1163.8	1164.6	1166.3	1170.3	1174.1	1177.8	1181.4
328.15 K	1158.3	1159.9	1160.7	1162.4	1166.5	1170.4	1174.2	1177.8
333.15 K	1154.4	1155.9	1156.8	1158.5	1162.7	1166.7	1170.5	1174.2
338.15 K	1150.4	1152	1152.9	1154.6	1158.9	1162.9	1166.8	1170.5
343.15 K	1146.4	1148	1148.9	1150.7	1155	1159.1	1163.1	1166.9
